Here are results for 4 compounds from ChEMBL document CHEMBL1155576, “Bioactive carotanes from Trichoderma virens” (2000).

The structures appear in SMILES notation. Active and inactive are the calls of the source. The calls are words filed in the database; no cut-off is given here.

Broadly, the inhibition is the share of the control response that was lost under treatment. Read a low inhibition as a weak effect.

Assay type in all cases: functional
The test system of experiment [1] is Triticum aestivum. In words: Inhibition of etiolated wheat coleoptile growth at 10^-4 M relative to control.
Experiment [2] deals with Triticum aestivum. As to the kind of experiment: Inhibition of etiolated wheat coleoptile growth at 10^-5 M relative to control.
The test system of experiment [3] is Triticum aestivum. In words: Inhibition of etiolated wheat coleoptile growth at 10^-3 M relative to control.

`CC(C)(O)[C@@]1(O)[C@@H]2CCC(CO)=CC[C@@]2(C)C[C@@H]1O`: the result in the experiment on Triticum aestivum [1], with Triticum aestivum [2] and with Triticum aestivum [3] was inactive. Regarding `CC(C)[C@@]1(O)[C@@H]2CC[C@@]3(C)O[C@H]3C[C@@]2(C)C[C@@H]1O` [TRICHOCARANE A], the inhibition at 100 µM in the experiment with Triticum aestivum [1] is 40%. Take `CC(C)[C@@]1(O)[C@@H]2CCC(CO)=CC[C@@]2(C)C[C@@H]1O` [TRICHOCARANE B]: the inhibition at 100 µM in the experiment on Triticum aestivum [1] came out at 40%. Also, the inhibition at 10 µM in the experiment on Triticum aestivum [2] was 19%. As for `CC(C)[C@@]1(O)[C@@H]2CCC(CO)CC[C@@]2(C)C[C@@H]1O` (some centres not stated) [TRICHOCARANE C], testing at 1000 µM with Triticum aestivum [3] gave an inhibition of 86%.
